{
  "source": "patent US7705016B2",
  "about": "“Regulation of food intake by modulation of long-chain fatty acyl-CoA levels in the hypothalamus” (Albert Einstein College of Medicine of Yeshiva University, priority 2003, dated 2010)",
  "tested_on": "CPT1M mRNA",
  "experiment": "CPT1M mRNA in hypothalamic nuclei micro punches by real-time PCR after ICV injection",
  "type": "in vivo, rat",
  "conditions": "3 days after ICV injection",
  "procedure": "Surgical implantation of ICV cannulae was performed on day 1 (˜3 weeks prior to the in vivo study). Full recovery of body weight and food intake was achieved by day 7. Rats randomized for ribozyme treatment received an ICV injection of CPT1L-Ribo, CPT inhibitors or controls on day 17. The experimental group treated with TDGA received ICV injection of the inhibitor on day 21, 6 hr prior to the harvesting of brains. Panels B. and C. show quantitation of CPT1L (B) and CPT1M (C) mRNA by real-time PCR. RNA was purified from individual hypothalamic nuclei (PVN, LHA, and arcuate), which were obtained by micro punch technique 3 days after ICV injection of pTarget control (▪; N=4) or CPT1LRibo (□; N=5). […] CPT1 activity was measured in the particulate fraction of protein extracts from animals treated with ICV control injections (▪; N=6, receiving aCSF+2% DMSO or Control Ribo), TDGA ( ?; N=6), or CPTL-Ribo (□; N=5). […] Levels of stearoyl-CoA (F) and oleyl-CoA (E) respectively were measured by HPLC in arcuate of rats injected ICV with control compound (▪; ST1340) or ST1326 (□).\nICV catheters were implanted in male Sprague-Dawley rats by stereotaxic surgery (Obici et al., 2002a; Obici et al., 2001; Liu et al., 1998). […] Thus, we next measured CPT1 activity in ARC and in whole hypothalamus. […]\nQuantitation of CPT1 and neuropeptides mRNA by Northern and real-time PCR. […]",
  "data": [
    {"substance": "CPT1L-Ribo: plasmid (pTarget, CMV promoter) expressing a hammerhead ribozyme that specifically cleaves rat CPT1L mRNA, complexed to PEI for ICV injection (DNA CUGUACCAAAGAGCUGUAGAGUCCGUGAGGACGAAACGCCGCUCACAAUG)", "values": [
      {"measurement": "CPT1M mRNA expression in hypothalamic nuclei", "value": "not appreciably altered"}
    ]}
  ]
}
